This passage reports Km results from patent US20050084612A1, “Surface coating for microfluidic devices that incorporate a biopolymer resistant moiety” (Caliper Life Sciences, Inc., priority 1999, published 2005).

This test concerns the target T1, PTP1b (Homo sapiens, UniProt P18031).
T1 sequence (P18031 1-435): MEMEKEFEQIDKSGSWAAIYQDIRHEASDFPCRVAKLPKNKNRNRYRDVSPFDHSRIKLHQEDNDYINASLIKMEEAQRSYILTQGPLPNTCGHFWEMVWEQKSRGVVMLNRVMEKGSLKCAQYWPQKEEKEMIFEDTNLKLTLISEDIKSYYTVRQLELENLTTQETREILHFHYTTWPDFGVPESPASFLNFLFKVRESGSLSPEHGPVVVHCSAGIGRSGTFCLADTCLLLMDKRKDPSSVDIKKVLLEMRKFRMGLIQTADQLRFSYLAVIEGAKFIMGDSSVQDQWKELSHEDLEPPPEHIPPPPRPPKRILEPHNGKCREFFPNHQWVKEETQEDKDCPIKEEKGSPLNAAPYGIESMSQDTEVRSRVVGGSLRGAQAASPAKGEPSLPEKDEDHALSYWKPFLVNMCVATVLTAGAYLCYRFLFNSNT
As to the kind of experiment: PTP1b/diFMUP Km measurement by substrate titration in microfluidic device. The format is biochemical. To be noted: read-out: Km PTP1b/diFMUP; PEI-2 coated device, no NDSB, 50 mM HEPES+10 mM DTT.

Procedure: A 0.1 mg/ml PTP1b solution (12 μl) was placed in well 8. […] The fluorescence signal is detected at the end of the main channel.
The first 5 steps are substrate-only titrations using well 2 and well 3, with buffer flow from well 1. These provide measurements of the substrate background signal. The next 5 steps are the same substrate titration steps, but with enzyme flowing from well 8. The difference between these signals and the substrate-only background signal is product signal. […] The final concentration of the substrate was calculated from the known well concentration and the ratio of currents as programmed in the script. Plotting 1/(product signal per unit time) vs. 1/(substrate concentration) yields the Lineweaver-Burk plot with Km equal to slope divided by the y-intercept.
The final substrate concentration was calculated from Equation 4.

On to `Cc1cc(=O)oc2c(F)c(OP(=O)(O)O)c(F)cc12` [diFMUP, di-6-a-difluoro-4-methylumbelliferyl phosphate], for which the Km came to 3 µM.
